Data set [1] relates to breast adenocarcinoma (MCF7). The experiment in a line: 96 h SRB growth inhibition assay, MCF7. In kind it is cell-based. The settings on record: Homo sapiens. Here is the method: (§1) Compounds were screened with a 96 h SRB (sulforhodamine B) assay for their antiproliferative activity in a panel of human cancer cell lines comprising lung adenocarcinoma (A549), breast adenocarcinoma (MCF7), and PDAC (MIA PaCa-2 and PANC-1) cell lines, as well as a fetal lung fibroblast-like nononcogenic control cell line (WI-38) (Figure 1f). […] Gemcitabine is also active in these lines at low nanomolar levels, although less so in MIA PaCa-2 (IC50 19 ± 5 nM) and more so in BX-PC3 cells (6 ± 2 nM).
(§2) All cell lines were purchased from ATCC and maintained in appropriate medium supplemented with 10% fetal bovine serum (Invitrogen, UK), 2 mM L-glutamine (Invitrogen, Netherlands), and other components as specified by the suppliers. Cell lines were maintained at 37 °C, 5% CO2, and routinely passaged. Drugs were dissolved in H2O and filtered through 0.22 μm pore-size filter units (stock 10 mM) before addition to appropriate cell line media. Cellular growth inhibition was measured using the sulforhodamine B (SRB) assay in 96-well plates as described previously.[78] The 50% inhibitory concentrations (IC50) were determined by taking the mean absorbance at 540 nm for each drug concentration expressed as a percentage of the absorbance of untreated control wells.

A further data set deals with PDAC PANC-1 cells. Kind of data set: 96 h SRB growth inhibition assay, PANC-1. It is filed as cell-based. The settings on record: Homo sapiens. The method, then:
as §1, §2

The subject of data set [2] is fetal lung fibroblast-like nononcogenic control cell line (WI-38). The experiment in a line: 96 h SRB growth inhibition assay, WI-38. The settings on record: Homo sapiens, WI-38; SMILES csv supplement; read-out: WI-30 IC50. In kind it is cell-based, human. Here is the method: as §1, §2
Data set [3] deals with MIA PaCa-2 pancreatic tumor xenograft. Kind of data set: Subcutaneous MIA PaCa-2 pancreatic tumor xenograft therapy study. It is filed as in vivo. The settings on record: 15 mg/kg IV twice weekly for 28 days. The method, then:
To determine if the in vitro activity of CM03 was paralleled in vivo, we explored the activity of CM03 in a mouse xenograft model of PDAC. We have previously reported that the maximum tolerated dosage (MTD) for intravenous (IV) administration of MM41 is 25 mg/kg.[33] CM03 was well tolerated, up to a dosage of 45–50 mg/kg, as judged by a dose-escalation MTD study. A therapeutic schedule of two CM03 intravenous (IV) doses was explored using a subcutaneous MIA PaCa-2 pancreatic tumor xenograft model derived from the human cell line used in the cell growth inhibition studies. A group size of eight CD-1 nude mice was used, and dosing was conducted at 10 and 15 mg/kg, each twice weekly, over a period of 4 weeks (28 days: 8 doses). Two further groups were given either MM41 or gemcitabine at 15 mg/kg and received the same dose regimen. […] IVIS imaging of treated mice was performed by taking account of the intrinsic fluorescence of CM03. […] Thus, in contrast to MM41 and gemcitabine, the higher-dose CM03 treatment results in a statistically significant (p < 0.001) antitumor effect, which persisted long after dosing had ceased, up to the termination of the xenograft experiment (62 days).
For therapy studies, female CD-1 nude mice (2–3 months old, weighing 20–25 g) were injected subcutaneously with 5 × 10^6 MIA PaCa-2 cells in the right flank (unsupplemented RPMI + Matrigel). When the tumors were established (approximately 13 days, mean size 0.05 cm^3), the mice were divided into five treatment groups with eight mice/group. The MM41 and CM03 samples were dissolved directly in saline to the required concentrations and administered IV. Tumor size was measured weekly by calliper using the π-based ellipsoid volume formula (length × width × height × π/6) every 3–4 days, and the mice were also weighed and examined at the same time to determine any signs of toxicity from the drug.
• Group 1:15 mg/kg of gemcitabine (Sigma), twice weekly dose. • Group 2:15 mg/kg of MM41, twice weekly dose. • Group 3:10 mg/kg of CM03, twice weekly dose. • Group 4:15 mg/kg of CM03, twice weekly dose. • Group 5: saline only, twice weekly dose.
The xenograft data was analyzed using Student’s t test (GraphPad Inc.). Responses were considered to be significant for those with probabilities (p) less than 5% (p < 0.05). Mice were culled if there was any sign of tumor ulceration, if tumor volume exceeded 1.5 cm^3, or if a weight loss over 20% of initial body weight was observed. Samples of liver, kidney, and spleen from each animal in the CM03 (15 mg/kg) and untreated control groups were excised at the end of the therapy experiment, then fixed in 10% neutral buffered formalin for at least 48 h prior to processing and paraffin embedding. Tissue slices were stained with hematoxylin and eosin and assessed visually for any obvious differences compared with controls, indicative of toxicity and tissue damage. For the imaging study mice were anesthetized using isoflurane and imaged using the IVIS preclinical imaging system from PerkinElmer. Images were captured after 4 h following intravenous administration of CM03 using Cy5.5 excitation for 5 s.

The target in another data set is hERG (Homo sapiens, UniProt Q12809). Kind of data set: hERG liability (unpublished data). For orientation: The hERG channel carries a current that helps repolarise heart muscle cells.
The nature of data set [4]: Aqueous solubility and pH of the salt. It is filed as physicochemical. Particulars: formate salt. An excerpt:
The synthetic approach to the trisubstituted series adapts previously published procedures to simplify purification and increase yields of both intermediates and final compounds (Scheme 1). 5,5-Dimethyl-1,3-dibromohydantoin was used for the regioselective bromination of the starting material, enabling more efficient and convenient purification. The separation of final products was achieved using column chromatography, giving a 26% overall yield for CM03.
CM03 was then converted to a mixed hydrochloride/formate salt in order to enhance its aqueous solubility. At a concentration of 5 mg/mL, the pH of the CM03 salt solution was 6.95.

In data set [5] the test system is MIA PaCa-2 pancreatic tumor xenograft. Also on record: method as in PMID 26077929. Particulars: cited from earlier work.

Broadly, the IC50 is the concentration that gives 50% inhibition.

hERG, sequence (Q12809 whole entry): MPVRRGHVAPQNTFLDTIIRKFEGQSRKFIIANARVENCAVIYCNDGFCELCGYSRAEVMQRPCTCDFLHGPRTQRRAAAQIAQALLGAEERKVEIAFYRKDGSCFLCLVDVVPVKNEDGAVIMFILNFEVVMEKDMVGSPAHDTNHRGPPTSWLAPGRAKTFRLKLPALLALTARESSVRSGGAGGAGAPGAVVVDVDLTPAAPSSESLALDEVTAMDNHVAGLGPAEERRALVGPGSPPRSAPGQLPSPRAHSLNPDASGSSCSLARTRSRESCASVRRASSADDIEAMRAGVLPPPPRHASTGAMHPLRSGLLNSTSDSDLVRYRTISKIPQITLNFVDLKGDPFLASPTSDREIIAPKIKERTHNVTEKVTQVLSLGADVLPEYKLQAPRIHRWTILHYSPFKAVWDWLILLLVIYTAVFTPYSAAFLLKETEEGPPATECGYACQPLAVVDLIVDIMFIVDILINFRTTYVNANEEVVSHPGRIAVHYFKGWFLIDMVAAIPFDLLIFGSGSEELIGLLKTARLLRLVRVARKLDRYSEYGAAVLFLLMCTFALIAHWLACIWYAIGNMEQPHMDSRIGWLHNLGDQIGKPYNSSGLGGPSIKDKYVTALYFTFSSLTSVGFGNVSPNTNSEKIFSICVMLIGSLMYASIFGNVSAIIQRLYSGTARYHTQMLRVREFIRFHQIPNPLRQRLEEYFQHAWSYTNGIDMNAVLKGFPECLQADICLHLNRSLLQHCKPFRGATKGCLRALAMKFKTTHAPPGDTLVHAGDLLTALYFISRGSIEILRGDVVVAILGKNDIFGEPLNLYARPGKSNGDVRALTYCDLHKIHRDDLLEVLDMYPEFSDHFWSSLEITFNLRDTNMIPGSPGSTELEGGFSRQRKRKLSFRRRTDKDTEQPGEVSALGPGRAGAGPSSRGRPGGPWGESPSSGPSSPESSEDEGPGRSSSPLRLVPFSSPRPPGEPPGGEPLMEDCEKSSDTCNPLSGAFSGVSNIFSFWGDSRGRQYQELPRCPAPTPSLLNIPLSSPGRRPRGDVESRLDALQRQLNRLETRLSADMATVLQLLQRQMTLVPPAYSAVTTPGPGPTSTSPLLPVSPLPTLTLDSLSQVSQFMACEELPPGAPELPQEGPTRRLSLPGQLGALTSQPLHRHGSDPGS

Consider `CN1CCN(CCCNc2cc3c4c(c(NCCCN5CCN(C)CC5)cc5c4c2C(=O)N(CCCN2CCOCC2)C5=O)C(=O)N(CCCN2CCOCC2)C3=O)CC1` [MM41, 4,9-bis((3-(4-methylpiperazin-1-yl)propyl)amino)-2,7-bis(3-morpholinopropyl)benzo[lmn][3,8]phenanthroline-1,3,6,8(2H,7H)-tetraone, reference compound], for which the IC50 is 70 ± 10 nM in data set [1], 3 ± 1 nM with PDAC PANC-1 cells and 230 ± 50 nM in data set [2]. In data set [3], the “MTV ± SEM (Day 29)” value was found to be 0.05 ± 0.02 cm^3. The “MTV ± SEM (Day 62)” value in data set [3] is reported as 0.26 ± 0.14 cm^3. Besides, the hERG liabilities result at hERG is “neither MM41 nor CM03 show significant hERG liabilities”. In addition, the water solubility result in data set [4] is given as “freely water-soluble”. Moreover, the “reduction of tumor volume in a PDAC xenograft model” value in data set [5] is listed as approximately 80%.

The values above are taken from paper PMC5867665, “Targeting Multiple Effector Pathways in Pancreatic Ductal Adenocarcinoma with a G-Quadruplex-Binding Small Molecule” (Journal of Medicinal Chemistry, 2018).
